Laboratory results: ChEMBL document CHEMBL1201862, “PubChem BioAssay data set” (2004)
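Dose response: 5 concentrations. Exposure: 48 h. Format: 96-well plates. Endpoint: linear interpolation; highest concentration if not reached. GI50: concentration for 50% inhibition of growth.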 Activity calls are given as the source filed them. Cut-off read from the data, not from the text of the source: active = GI50 up to about 1.1 µM and inactive = higher. Where a SMILES comes first, the peptide text is derived from it. [ ]: non-standard residue; d: D form. The star is where a group is joined. ξ: configuration not given here. ξPhe(4-NO2) = NC(Cc1ccc([N+](=O)[O-])cc1)C(=O)O; Boc = CC(C)(C)OC(=O)*; OBn = c1ccc(CO*)cc1

How the values were obtained:
Assay in all cases: NCI tumour cell line growth inhibition, 48 h
KM12 = test system: KM12
PC-3 = test system: PC-3
EKVX = test system: EKVX
ACHN = test system: ACHN
SW-620 = test system: SW-620
CCRF-CEM = test system: CCRF-CEM
T47D = test system: T47D
A498 = test system: A498
U-251 = test system: U-251
OVCAR-5 = test system: OVCAR-5
MDA-MB-435 = test system: MDA-MB-435
OVCAR-3 = test system: OVCAR-3
Hs-578T = test system: Hs-578T
HL-60 = test system: HL-60
SN12C = test system: SN12C
NCI/ADR-RES = test system: NCI/ADR-RES
MOLT-4 = test system: MOLT-4
SK-MEL-2 = test system: SK-MEL-2
A549 = test system: A549
HCC 2998 = test system: HCC 2998

Compound | GI50 (KM12) | GI50 (PC-3) | GI50 (EKVX) | GI50 (ACHN) | GI50 (SW-620) | GI50 (CCRF-CEM) | GI50 (T47D) | GI50 (A498) | GI50 (U-251) | GI50 (OVCAR-5) | GI50 (MDA-MB-435) | GI50 (OVCAR-3) | GI50 (Hs-578T) | GI50 (HL-60) | GI50 (SN12C) | GI50 (NCI/ADR-RES) | GI50 (MOLT-4) | GI50 (SK-MEL-2) | GI50 (A549) | GI50 (HCC 2998)
CCOC(=O)/C=C(/OCC)[C@@H]1C(C(=O)c2ccc(Cl)cc2)[C@H]1/C(=C\C(=O)OCC)OCC (stereo not given in full) | 56.9 µM (inactive) | > 30.5 µM (inactive) | > 100 µM (inactive) | > 100 µM (inactive) | > 100 µM (inactive) | 57.4 µM (inactive) | > 72.9 µM (inactive) | > 100 µM (inactive) | > 100 µM (inactive) | > 100 µM (inactive) | > 100 µM (inactive) | > 100 µM (inactive) | > 100 µM (inactive) | 5.87 µM (inactive) | > 100 µM (inactive) | 29 µM (inactive) | > 20.5 µM (inactive) | > 100 µM (inactive) | > 100 µM (inactive) | 
COc1ccc2[nH]c3c(c2c1)CCc1c(OC)cccc1-3 | > 100 µM (inactive) | > 100 µM (inactive) | > 100 µM (inactive) | > 100 µM (inactive) | > 100 µM (inactive) | 52.2 µM (inactive) | 14.5 µM (inactive) | > 100 µM (inactive) | 28.8 µM (inactive) | > 100 µM (inactive) | > 100 µM (inactive) | > 100 µM (inactive) | 39.7 µM (inactive) |  | > 100 µM (inactive) | > 100 µM (inactive) | 29.9 µM (inactive) | > 100 µM (inactive) | > 100 µM (inactive) | > 100 µM (inactive)
CC(C)(C)OC(=O)NC(Cc1ccc([N+](=O)[O-])cc1)C(=O)NCC(=O)OCc1ccccc1 (stereo not given) (Boc-[ξPhe(4-NO2)]-Gly-OBn) | 31.4 µM (inactive) | 17.2 µM (inactive) | > 100 µM (inactive) | 23 µM (inactive) | 29.6 µM (inactive) | 13.9 µM (inactive) | 44.1 µM (inactive) | 38.6 µM (inactive) | 20.7 µM (inactive) | > 100 µM (inactive) | 16.9 µM (inactive) | 19 µM (inactive) | 22.3 µM (inactive) | 36.1 µM (inactive) | 20.7 µM (inactive) | 42 µM (inactive) | 15 µM (inactive) |  | 47.4 µM (inactive) | 19.6 µM (inactive)
NC1(C(=O)O)CCCC1C(=O)O (stereo not given) | > 100 µM (inactive) | > 100 µM (inactive) | > 100 µM (inactive) | > 100 µM (inactive) | > 100 µM (inactive) | > 100 µM (inactive) | > 100 µM (inactive) | > 100 µM (inactive) | > 100 µM (inactive) | > 100 µM (inactive) | > 100 µM (inactive) | > 100 µM (inactive) | > 100 µM (inactive) | > 100 µM (inactive) | > 100 µM (inactive) | > 100 µM (inactive) | > 100 µM (inactive) | > 100 µM (inactive) | > 100 µM (inactive) | 
COC(=O)[C@H](CCSC)NC(=O)c1ccc(CNC(=O)/C=C/c2cccc(Oc3ccccc3)c2)cc1 | > 100 µM (inactive) | > 75 µM (inactive) | 67.3 µM (inactive) | > 74.6 µM (inactive) | 77.4 µM (inactive) | 33.1 µM (inactive) | 0.27 µM (active) | 19.8 µM (inactive) | > 100 µM (inactive) | > 100 µM (inactive) | 14.3 µM (inactive) | 23.3 µM (inactive) | 59.2 µM (inactive) |  | 60.5 µM (inactive) | 43 µM (inactive) | 8.83 µM (inactive) | 14.8 µM (inactive) | 98.4 µM (inactive) | 28.5 µM (inactive)
